Converted amounts (≈) assume the structure as drawn.
Tests used:
Test in all cases: In vitro assay of antibacterial activity (agar dilution MIC)
Assay type in all cases: cell-based
[1] = tested on: Streptococcus pneumoniae ATCC 6303; conditions: organism code GG, BHI agar, 35-37° C., 20 to 24 hours
Method: (§1) Representative compounds of the present invention were assayed in vitro for antibacterial activity as follows: Twelve petri dishes containing successive aqueous dilutions of the test compound mixed with 10 mL of sterilized Brain Heart Infusion (BHI) agar (Difco 0418-01-5) were prepared. Each plate was inoculated with 1:100 (or 1:10 for slow-growing strains, such as Micrococcus and Streptococcus) dilutions of up to 32 different microorganisms, using a Steers replicator block. The inoculated plates were incubated at 35-37° C. for 20 to 24 hours. In addition, a control plate, using BHI agar containing no test compound, was prepared and incubated at the beginning and end of each test.
(§2) An additional plate containing a compound having known susceptibility patterns for the organisms being tested and belonging to the same antibiotic class as the test compound was also prepared and incubated as a further control, as well as to provide test-to-test comparability. […] After incubation, each plate was visually inspected. The minimum inhibitory concentration (MIC) was defined as the lowest concentration of drug yielding no growth, a slight haze, or sparsely isolated colonies on the inoculum spot as compared to the growth control.

[2] = tested on: Staphylococcus aureus 1775; conditions: organism code BB, BHI agar, 35-37° C., 20 to 24 hours
Method: as §1, §2

[3] = tested on: Staphylococcus aureus ATCC 6538P; conditions: organism code AA, BHI agar, 35-37° C., 20 to 24 hours
Method: as §1, §2

[4] = tested on: Streptococcus pyogenes EES61; conditions: organism code DD, BHI agar, 35-37° C., 20 to 24 hours
Method: as §1, §2

[5] = tested on: Streptococcus pyogenes PIU 2548; conditions: organism code FF, BHI agar, 35-37° C., 20 to 24 hours
Method: as §1, §2

[6] = tested on: Haemophilus influenzae DILL AMP R; conditions: organism code CC, BHI agar, 35-37° C., 20 to 24 hours
Method: as §1, §2

[7] = tested on: Streptococcus pneumoniae 5649; conditions: organism code JJ, BHI agar, 35-37° C., 20 to 24 hours
Method: as §1, §2

[8] = tested on: Streptococcus pneumoniae 5737; conditions: organism code HH, BHI agar, 35-37° C., 20 to 24 hours
Method: as §1, §2

[9] = tested on: Streptococcus pyogenes 930; conditions: organism code EE, BHI agar, 35-37° C., 20 to 24 hours
Method: as §1, §2

SMILES	MIC [1] [µg/mL]	MIC [2] [µg/mL]	MIC [3] [µg/mL]	MIC [4] [µg/mL]	MIC [5] [µg/mL]	MIC [6] [µg/mL]	MIC [7] [µg/mL]	MIC [8] [µg/mL]	MIC [9] [µg/mL]
CC[C@H]1OC(=O)[C@H](C)[C@@H](O[C@H]2C[C@@](C)(OC)[C@@H](O)[C@H](C)O2)[C@H](C)[C@@H](O[C@@H]2O[C@H](C)C[C@H](N(C)C)[C@H]2O)[C@](C)(O)C[C@@H](C)C(=O)[C@H](C)[C@@H](O)[C@]1(C)O [Ery. A, Erythromycin A, reference compound]	0.06 (≈ 0.0818 µM)	>100	0.2 (≈ 0.273 µM)	0.06 (≈ 0.0818 µM)	32 (≈ 43.6 µM)	4 (≈ 5.45 µM)	16 (≈ 21.8 µM)	–	–
CCC1OC(=O)C(C)C(=O)C(C)C(OC2OC(C)CC(N(C)C)C2O)C(C)(OCC=Cc2cnc3ccccc3c2)CC(C)C(N)C(C)C(O)C1(C)O (stereo not drawn) [Example 7, Compound of Formula (II): R^1 is (Quinolin-3-yl)CH═CHCH2; R^2 is Hydrogen; R^3 is Hydrogen; R^4 is Hydrogen; R^5 is Hydrogen; R^p is Hydrogen]	0.5	>100	0.78	0.25	2	16	1	>64	–
CCC1OC(=O)C(C)C(=O)C(C)C(OC2OC(C)CC(N(C)C)C2O)C(C)(OCC=Cc2cnc3ccccc3c2)CC(C)C2NC(=O)OC(C2C)C1(C)O (stereo not drawn) [Example 8, Compound of Formula (II): R^1 is (Quinolin-3-yl)CH═CHCH2; R^2 is Hydrogen; R^3 and R^4 together are —C(O)—; R^5 is Hydrogen; R^p is Hydrogen]	0.03	>100	0.39	0.03	1	16	2	128	>128
CCC1OC(=O)C(C)C(=O)C(C)C(OC2OC(C)CC(N(C)C)C2O)C(C)(OCC=Cc2cnc3ccccc3c2)CC(C)C(N)C(C)C2OC(=O)OC12C (stereo not drawn) [Example 9, Compound of Formula (II): R^1 is (Quinolin-3-yl)CH═CHCH2; R^2 is Hydrogen; R^3 is Hydrogen; R^4 and R^5 are —C(O)—; R^p is Hydrogen]	2	>100	0.2	1	>128	32	32	>128	>128

Reference: US20020132782A1, “9-amino erythromycin derivatives with antibacterial activity” (priority 2001, published 2002)
